Reference: patent publication US20260297060A1, “COMPOUNDS FOR THE DEGRADATION OF MUTANT BRAF” (C4 THERAPEUTICS, INC., priority 2023, published 2026)
Like-named read-outs stand apart in the source and are kept apart here.

What was measured:
[1] = Example 7 pharmacokinetics assay for efficacy study (plasma, liver); format: in vivo, BALB/c nude mice; conditions: mouse, po, 100 mg/kg, p.o., QD × 14 days
Method: For efficacy study, agents were tested in the A375 human melanoma xenografts. Compound 118, Compound 156, and Compound 180 were administered to BALB/c nude mice bearing A375 xenografts from day 0 and dosed p.o. twice per day (BID). Compound 141 was administered from day 0 and dosed p.o. twice per day (BID) or dosed p.o. daily (QD) from day 1. Compound 141, Compound 118, Compound 156, and Compound 180 were dosed at 10 mg/kg for 14 days. The known BRAF inhibitor Dabrafenib was used as a positive control. Dabrafenib was administered from day 1 and dosed p.o. daily (QD) for 14 days and dosed at 100 mg/kg.
The plasma samples were collected at predetermined time points for PK analysis. The mice were euthanized at predetermined time points post the treatment. The blood samples were collected into the 1.5 mL Eppendorf tubes containing 15 μL of 0.5 M EDTA-K2. And then the anticoagulant blood samples were centrifuged at 2,500 g at 4° C. for 15 minutes. The plasma samples were separated into 2 aliquots. The 1st was used for PK analysis, and the 2nd served as backup. The samples were stored at −80° C. before bioanalysis.
Liver samples were collected at predetermined time points for PK analysis. The left lobe of the liver was dissected out and split into 2 parts. The 1st part was used for PK analysis and the 2nd part served as the backup for the study. The samples were transferred into pre-labeled tubes and quickly froze in liquid nitrogen within 2 minutes after dissection. The samples were stored at −80° C. before bioanalysis.
The harvested plasma and liver samples were processed for pharmacokinetics analysis by LC-MS/MS with a concentration range of 0.500~500 ng/mL for Dabrafenib in plasma and liver homogenate, 20.0~20,000 ng/mL for Compound 141, Compound 180 and Compound 118 in plasma and liver, 10.0~10,000 ng/mL for Compound 156 in plasma and liver.

[2] = Pharmacokinetics after 21 days dosing in the efficacy study (plasma, tumor and brain concentrations; plasma AUC at steady state), Example 14; format: in vivo, female BALB/c nude mice
Method: Agents were tested in the A375 human melanoma xenografts. Compound 26 and Compound 141 were administered to BALB/c nude mice bearing A375 tumors from PG-DO and dosed via PO twice a day (BID) or third a day (TIP) or dosed P daily (QD) from PG-D. Dabrafenib was administered to BALB/c nude mice bearing A375 tumors from PG-D1 and dosed via P daily (QD). Compound 26 was dosed at 1.5 mg/kg (QD), 2 mg/kg (TID), 3 mg/kg (BID), 6 mg/kg (QD) and 10 mg/kg (BID) for 21 days. Compound 141 was dosed at 0.75 mg/kg (BID), 1 mg/kg (TID), 1.5 mg/kg (BID), 3 mg/kg (QD) and 5 mg/kg (BID) for 21 days. Dabrafenib was dosed at 100 mg/kg for 21 days. This study was non-GLP.
The plasma samples were collected at predetermined time points for PK analysis. For non-termination plasma collection: the blood samples were collected into the 1.5 mL Eppendorf tubes containing 3 μL of 0.5 M EDTA-K2. And then the anticoagulant blood samples were centrifuged at 2,500 g at 4° C. for 15 minutes. For termination plasma collection: the mice was euthanized at predetermined time points post the treatment, the blood samples were collected into the 1.5 mL Eppendorf tubes containing 15 μL of 0.5 M EDTA-K2. And then the anticoagulant blood samples were centrifuged at 2,500 g at 4° C. for 15 minutes. The plasma samples were separated into 2 aliquots. The 1st was used for PK analysis, and the 2nd was served as backup.
The tumor samples were collected at predetermined time points for PK and WB analysis. The tumor was dissected out and split into 3 parts. The 1st part was used for PK analysis, the 2nd part was used for WB analysis and the last one was used as backup for the study. The samples were transferred into pre-labeled tubes and quickly froze in liquid nitrogen within 2 minutes after dissection. The samples were stored at −80° C. before analysis.
The brain samples were collected at predetermined time points for PK and potential WB analysis. The brain was dissected out and split into 3 parts (left brain, right brain upper and right brain lower), the left brain was used for PK, the right brain upper was used for WB and the last one was used as the backup for the study. The samples were transferred into pre-labeled tubes and quickly froze in liquid nitrogen within 2 minutes after dissection. The samples were stored at −80° C. before analysis.
The harvested plasma and tumor samples were processed for pharmacokinetics analysis by LC-MS/MS with a concentration range of 1.00-1,000 ng/mL for dabrafenib in plasma and 0.0500-50 ng/mL in tumor and brain homogenate, 5.00-10,000 ng/mL for Compound 141 in plasma and 0.200~200 ng/ml in tumor and brain homogenate. 20.0~20,000 ng/mL for Compound 26 in plasma and 0.5~500 ng/mL for Compound 26 tumor and brain homogenate.
Dabrafenib, Compound 26 and Compound 141 in female BALB/c nude mice plasma (K2-EDTA), tumor and brain homogenate were analyzed by LC-MS/MS (Triple Quad 6500+ Low Mass). Verapamil (5 ng/mL) in acetonitrile: methanol (V: V=95:5) was used as the internal standard for Dabrafenib, Compound 26 and Compound 141 in plasma. Verapamil (0.5 ng/mL) in acetonitrile: methanol (V: V=95:5) was used as the internal standard for Dabrafenib, Compound 26 and Compound 141 in tumor and brain homogenate.
An aliquot of 10 μL unknown sample, calibration standard, quality control, dilute quality control, single blank and double blank samples were added to the 96-well plate. Each sample for Dabrafenib, Compound 26 and Compound 141 in plasma (except the double blank) was quenched with 200 μL IS respectively (double blank sample was quenched with 200 μL ACN: MeOH (V: V=95:5)); each sample for Dabrafenib, Compound 26 and Compound 141 in tumor and brain(except the double blank) was quenched with 100 μL IS respectively (double blank sample was quenched with 100 μL ACN: MeOH (V: V=95:5)); and then the mixture was vortex-mixed for 5 min at 800 rpm and centrifuged for 15 min at 3220 g (4000 rpm), 4° C. […]

concentration at 6 h ([1]; liver, read-out: Concentration in Liver (mean ± SEM)): 195 ± 32.1 ng/g | concentration at 6 h ([1]; plasma, read-out: Concentration in Plasma (mean ± SEM)): 0.0805 ± 0.0173 µg/mL | Concentration in Brain ([2]; 100 mg/kg p.o. QD x 21 days, 24 h, BQL: below the lower limit of quantitation): BQL^a | concentration at 4 h ([2]; mouse, brain, po, 100 mg/kg p.o. QD x 21 days, mean ± SEM, read-out: Concentration in Brain): 3.59 ± 0.558 ng/g | concentration at 0.25 h ([2]; mouse, plasma, po, 100 mg/kg p.o. QD x 21 days, 0.25 h, mean ± SEM): 38.7 ± 2.11 µg/mL | concentration at 0.5 h ([2]; mouse, plasma, po, 100 mg/kg p.o. QD x 21 days, 0.5 h, mean ± SEM): 25.7 ± 5.69 µg/mL | concentration at 1 h ([2]; mouse, plasma, po, 100 mg/kg p.o. QD x 21 days, 1 h, mean ± SEM): 3.27 ± 0.443 µg/mL | concentration at 2 h ([2]; mouse, plasma, po, 100 mg/kg p.o. QD x 21 days, 2 h, mean ± SEM): 0.444 ± 0.129 µg/mL | concentration at 4 h ([2]; mouse, plasma, po, 100 mg/kg p.o. QD x 21 days, mean ± SEM, read-out: Concentration in Plasma): 0.0544 ± 0.00702 µg/mL | concentration at 8 h ([2]; mouse, plasma, po, 100 mg/kg p.o. QD x 21 days, 8 h, mean ± SEM): 0.0554 ± 0.00419 µg/mL | concentration at 10 h ([2]; mouse, plasma, po, 100 mg/kg p.o. QD x 21 days, 10 h, mean ± SEM): 0.024 ± 0.00686 µg/mL | concentration at 24 h ([2]; mouse, plasma, po, 100 mg/kg p.o. QD x 21 days, 24 h, read-out: Concentration in Plasma): 0.00227 µg/mL | AUC ([2]; mouse, plasma, po, 100 mg/kg p.o. QD × 21 days, read-out: Plasma AUC at steady state (Day 21), Average): 18.1 µg·h/mL | concentration at 4 h ([2]; mouse, tumor, po, 100 mg/kg p.o. QD x 21 days, mean ± SEM, read-out: Concentration in Tumor): 137 ± 7.51 ng/g | concentration at 24 h ([2]; mouse, tumor, po, 100 mg/kg p.o. QD x 21 days, 24 h, mean ± SEM, read-out: Concentration in Tumor): 1.43 ± 0.191 ng/g
SMILES: CC(C)(C)c1nc(-c2cccc(NS(=O)(=O)c3c(F)cccc3F)c2F)c(-c2ccnc(N)n2)s1 [Dabrafenib, dabrafenib, reference compound]
